From PubChem BioAssay (NCI)
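48-hour exposure; five concentrations; linearly interpolated endpoints. At the GI50, growth is halved. TGI: total growth inhibition.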

System: MDA-MB-468 breast
Assay: NCI tumour cell line growth inhibition, 48 h

`Nc1nc2c(c3ncccc13)C(c1cccc(Br)c1)Cc1ncccc1-2` (stereo unspecified) showed a GI50 of 349 nM and a TGI of 7660 nM.
`Nc1cc(-c2c[nH]c3ccc(Br)cc23)nc2cc(-c3c[nH]c4ccc(Br)cc34)nn12` showed a GI50 of 1590 nM and a TGI of 3160 nM.
`CCCS(=O)(=O)Nc1ccc(F)c(C(=O)c2c[nH]c3ncc(Cl)cc23)c1F` showed a GI50 of 7640 nM and a TGI of 49500 nM.
With `CCOc1nc(-c2ccccc2)cc2c(O)c(C(=O)N/N=C/c3ccc(O)cc3O)[nH]c(=O)c12` the GI50 was 2490 nM and the TGI was 56700 nM.
For `CCOc1ccccc1NC1=C(Cl)C(=O)c2nc(C)ccc2C1=O`, the GI50 was 1450 nM and the TGI was 2880 nM.
For `CCN1CCN(c2cc(C)nc(N(CCNc3ccnc4cc(Cl)ccc34)Cc3ccc4c(c3)OCO4)n2)CC1`, the GI50 was 534 nM and the TGI was 2140 nM.
Compound `O=C1Nc2cc(Cl)ccc2/C1=C\c1c(-c2ccc(F)cc2)nc2ccccn12` has a GI50 of 448 nM and a TGI of 2250 nM.
`COc1ccc2[nH]c(-c3ccccc3)c(/C=C(\C#N)S(=O)(=O)c3ccccc3)c2c1` was tested, and the GI50 was 4170 nM and the TGI was > 100000 nM.
With `O=C(Nc1cccc(-n2cc(-c3ccncc3)c(-c3ccc(Cl)c(O)c3)n2)c1)Nc1ccc(Cl)c(C(F)(F)F)c1` the GI50 was 547 nM and the TGI was 2230 nM.
In the case of `CCCCN1CCN(c2ccc3nc(-c4ccc5nc(-c6ccc(OC)c(OC)c6)[nH]c5c4)[nH]c3c2)CC1`, the GI50 is reported as 370 nM and the TGI is reported as 1330 nM.
`O=C1c2ccccc2-c2nnc(-c3ccc(Br)cc3)cc21` was tested, and the GI50 was > 100000 nM and the TGI was > 100000 nM.
With `C[C@@H]1C[N+]2([O-])[C@H]3C4=CCC[C@@H]4CC[C@H]3[C@@]3(C)OC(=O)CC[C@]34CC[C@H]1[C@@H]42` (stereo partly specified) the GI50 was > 60000 nM and the TGI was > 60000 nM.
`O=C(N/N=C/c1ccccc1O)c1ccccc1O` was tested, and the GI50 was 427 nM and the TGI was 5560 nM.
For `CCOC(=O)N1C/C(=C/c2ccc(F)cc2)C(=O)/C(=C/c2ccc(F)cc2)C1`, the GI50 was 1260 nM and the TGI was 2900 nM.
With `COc1ccc(C(=O)c2cc(OC)c3c(c2)OCO3)cc1O` the GI50 was 366 nM and the TGI was 3350 nM.
In the case of `CN(C)CCCOc1ccc(OCCCN(C)C)c2c1C(=O)c1ccccc1C2=O`, the GI50 is reported as 580 nM and the TGI is reported as 2950 nM.
Work on `O=C1C=CC(=O)N1C1CCCCCCCCCCC1` yielded a GI50 of 2210 nM and a TGI of 6800 nM.
With `O=C(N/N=C\c1ccc(Cl)cc1)c1ccc2nc(-c3ccc(Br)cc3)[nH]c2c1` the GI50 was 2020 nM and the TGI was 3860 nM.
`CC(=O)Nc1cccc(Nc2nc(N[C@@H](C)c3ccccc3)c3ccccc3n2)c1` showed a GI50 of 229 nM and a TGI of 818 nM.
`O=C(Nc1ccc(CN2CCOCC2)cc1)c1ccc(-c2cc(Cl)ccc2Cl)o1` showed a GI50 of 4520 nM and a TGI of 25800 nM.
For `O=c1c2ccc3cccc4c(=O)c5ccc6cccc1c6c5-c2c34`, the GI50 was > 50000 nM and the TGI was > 50000 nM.
For `O=c1c2cc(F)ccc2sc2c(N3CCNCC3)nc3ccccc3c12`, the GI50 was 1580 nM and the TGI was 3190 nM.
In the case of `COc1cc2ncn(-c3cc(O[C@H](C)c4ccccc4Cl)c(C(N)=O)s3)c2cc1OC`, the GI50 is reported as 7.89 nM and the TGI is reported as 4000 nM.
